# Measurements from ChEMBL document CHEMBL1134115, “Antimycobacterial activity of 9-sulfonylated/sulfenylated-6-mercaptopurine derivatives” (Bioorg Med Chem Lett, 2001).
# Columns and labels:
# [1] = Selectivity index (IC50/MIC) was determined; assay type: functional
# [2] = system: Mycobacterium avium; test: Percent inhibition against Mycobacterium avium at the dose of 12.5 uM using Microplate Alamar Blue Assay (MABA) assay; assay type: functional
# [3] = system: Vero; test: Cytotoxicity determined in VERO cells at concentrations less than or equal to […] or 10 times the MIC against Mycobacterium tuberculosis H37Rv.; assay type: functional, cell-based; settings: Chlorocebus sabaeus
# [4] = system: Mycobacterium tuberculosis; test: Antimycobacterial activity against Mycobacterium tuberculosis H37Rv using Microplate Alamar Blue Assay (MABA) assay; assay type: functional
# [5] = system: Mycobacterium tuberculosis; test: Antimycobacterial activity against Mycobacterium tuberculosis wild type (WT, H37Rv); assay type: functional
# [6] = system: Mycobacterium tuberculosis; test: Antimycobacterial activity against Mycobacterium tuberculosis Erdman using Microplate Alamar Blue Assay (MABA) assay; assay type: functional
Structure (SMILES),Selectivity index [1] [SI],inhibition at 12.5 µM [2] [%],IC50 [3] [µg/mL],MIC [4] [µg/mL],MIC [5] [µg/mL],MIC [6] [µg/mL]
O=S(=O)(c1ccc(F)cc1)n1cnc2c(S)ncnc21,0.3,70,1,3.39,,
O=[N+]([O-])c1ccccc1Sn1cnc2c(S)ncnc21,6.4,75,5,0.78,,
CN(C)S(=O)(=O)n1cnc2c(=S)[nH]cnc21,> 513,40,> 200,0.39,0.39,
O=S(=O)(c1ccc(Br)cc1)n1cnc2c(S)ncnc21,2.6,81,2,0.78,,
CO[C@H]1/C=C/O[C@@]2(C)Oc3c(C)c(O)c4c(O)c(c(/C=N/N5CCN(C)CC5)c(O)c4c3C2=O)NC(=O)/C(C)=C\C=C\[C@H](C)[C@H](O)[C@@H](C)[C@@H](O)[C@@H](C)[C@H](OC(C)=O)[C@@H]1C [RIFAMPIN],> 8000,,> 1000,0.125,0.125,
CC(=O)Nc1ccc(S(=O)(=O)n2cnc3c(S)ncnc32)cc1,> 256,57,> 200,0.78,0.78,
O=S(=O)(c1ccc(Cl)cc1)n1cnc2c(S)ncnc21,0.32,60,1,3.13,3.13,
Cc1ccc(S(=O)(=O)n2cnc3c(S)ncnc32)cc1,2.5,73,4,1.6,,
O=[N+]([O-])c1ccc(Sn2cnc3c(S)ncnc32)cc1,58,79,45,,0.78,0.78
Nc1cccc(S(=O)(=O)n2cnc3c(S)ncnc32)c1,150,68,468,3.13,3.13,
O=[N+]([O-])c1ccccc1S(=O)(=O)n1cnc2c(S)ncnc21,40,50,64,1.56,,
Nc1ccc(S(=O)(=O)n2cnc3c(S)ncnc32)cc1,> 128,63,> 100,0.78,,
